The record followed here is patent US6995135B2, “Peptides and peptidomimetics having anti-proliferative activity and/or that augment nucleic acid damaging agents or treatments” (priority 2002, dated 2006).

The subject of data set [1] is HUVEC. The data set can be described thus: Growth of normal human umbilical endothelial cells (HUVEC). The format is cell-based. Here is the method:
Similar studies were performed using normal human umbilical endothelial cells (HUVEC).

In data set [2] the test system is MIAPaCa2 human pancreatic carcinoma cells. The data set can be described thus: Colony formation analysis of MIAPaCa2 cells. It is filed as cell-based. As to conditions: CBP501 with cisplatin or oxaliplatin (1, 3 or 9 μg/ml), three hours then 10 days.
Description: Briefly, cells were plated at 300 cells/well in 6 well plates, incubated overnight, and treated with the compounds for three hours. The medium was changed and cultured for an additional 10 days. Cells were subsequently fixed with 70% methanol, stained with 0.1% crystal violet and visualized.
The test system of data set [3] is MIAPaCa2. The data set can be described thus: Growth inhibition analysis of MIAPaCa2 using alamar blue. It is filed as cell-based, human. The protocol:
The medium was changed and incubated an additional 24, 48 or 72 hour. Following incubation, 20 μl of alamarBlue 90% reagent was added to each well for another 6 hours for detection of cell viability by fluorescent intensity. Fluorescent intensity was measured using a Spectrafluor Plus plate reader with exitation 530 nm and emission 590 nm. The IC50 was calculated (Table 6).
A general note: Resazurin is reduced to fluorescent resorufin, in cell work by metabolically active cells.

For data set [4], the system named is MIAPaCa2 human pancreatic carcinoma cells. The data set can be described thus: MIAPaCa2 human pancreatic carcinoma subcutaneous tumor in scid mice. It is filed as in vivo, mouse. The protocol: To study in vivo efficacy of the compounds, MIAPaCa2 human pancreatic carcinoma cells were implanted subcutaneously in scid mice. The treatment was initiated when the size of the primary tumor became 0.1 cm3 (Day0) or larger, e.g., 7 or 8 mm in diameter. CDDP (3 mg/kg) and CBP 501 (10 or 40 mg/kg) were intra-peritoneally administered alone or in combination. Tumor sizes were measured using calipers three times a week, and volumes were calculated using the formula: weight(mg)=[width (mm)2×length (mm)]/2. Mean tumor sizes for each treatment group are plotted (n=4) against the days after the start of treatment (FIG. 10).

Data set [5] in a line: Mouse serum treatment analysis, residual peptide by HPLC. The format is in vitro ADME. As to conditions: 1 hr at 37 degree, read-out: Residual peptide after 1 hr human serum treatment (Mouse serum treatment analysis).
Data set [6] concerns MIAPaCa2. The data set can be described thus: Sensitization of MIAPaCa2 to bleomycin or adriamycin, % sub-G1 cells by flow cytometry. The format is cell-based, human. As to conditions: bleomycine 10 μg/ml or adriamycin 1 μg/ml, 3 hours then 21 hours. Here is the method: Cell culture A human T-cell leukemia-derived cell line, Jurkat, was cultured in RPMI 1640 (Sigma) supplemented with 10% fetal calf serum (IBL: Immuno-Biological Laboratories, Gunma, Japan) at 37° C./5% CO2. Human pancreatic cancer derived cell line, MIAPaCa2 was cultured in DMEM with 10% fetal calf serum at 37° C./5% CO2.
The G2 checkpoint abrogating activity of various compounds at different doses on human pancreatic cancer derived cell line MIAPaCa2 treated with bleomycine (Bleo) or adriamycin (ADR) was studied. Briefly, cells were incubated with the compounds and bleomycine (10 μg/ml) or adriamycin (1 μg/ml) for 3 hours. The medium was changed and incubated for an additional 21 hours. Harvested cells were stained for DNA by propium iodide and analyzed with flow cytometry as previously described. The % of the sub-G1 cell population is indicated as dead cells in FIG. 3.
(In general: In flow cytometry, cells or beads pass a laser one at a time.)

Data set [7] deals with HUVEC. The data set can be described thus: G2 checkpoint abrogation with cis-platin, flow cytometry. As to conditions: normal G1 checkpoint, at least up to 50 μM CBP501. It is filed as cell-based, human. Here is the method: The medium was aspirated, fresh medium without these compounds was added and the cells were incubated for an additional 45 hr. The cells including floating cells were harvested using trypsin-EDTA solution, incubated with Krishan's solution and analyzed for DNA content by flow cytometry as previously described.

For data set [8], the system named is Jurkat cells. The data set can be described thus: G2 checkpoint abrogation in bleomycin treated Jurkat cells, flow cytometry. The conditions noted are these: Jurkat cells; with 40 μg/ml bleomycine, 24 hours; dose with detectable G2 checkpoint abrogation. The format is cell-based, human.
Description: Flow cytometry analysis of G2 checkpoint abrogation was performed using human leukemia derived Jurkat cell line. In brief, cultured cells were treated with various doses of peptide/peptidomimetic and 40 μg/ml bleomycine for 24 hr. The DNA of the cells was stained with propidium iodide and analyzed by flow cytometry.
The “Appearance of side effect when used alone” indicates the peptide/peptidomimetic dose that produced Jurkat cell cycle disturbance, i.e., the appearance of significant amounts of SubG1 cells (dead cells) or cells in which the DNA content of each varies more than usual. […] The “G2 abrogating dose” indicates the peptide/peptidomimetic dose with 40 μg/ml bleomycine that produced detectable G2 checkpoint abrogation activity following treatment for 24 hours. The “Appearance of side effect when used with colchicine” indicates the peptide/peptidomimetic dose with 5 μg/ml colchicine that produced Jurkat cell cycle disturbance following treatment for 24 hours.
The subject of data set [9] is Jurkat cells. The data set can be described thus: M phase checkpoint abrogation / non specific toxicity in colchicine treated Jurkat cells, flow cytometry. As to conditions: 0.5 μg/ml colchicine, up to 50 μM of peptide, FIG. 12. It is filed as cell-based. The protocol:
Cell-cycle analysis The cell cycle status of the cells treated with bleomycin or adriamcin were analyzed by flow cytometry as described by Kawabe (1997) Nature 385:454–458. In brief, two million cells were re-suspended and incubated in 200 μul Krishan's solution (0.1% Sodium citrate, 50 μg/ml PI, 20 μg/ml RNase A and 0.5% NP-40) for 1 hr at 4° C. and analyzed by a flow cytometry, FACScan™ (Beckton Dickinson, Mountain View, Calif.) with the program CELLQuest™ (Beckton Dickinson).
Flow cytometry analysis of M phase checkpoint abrogation by the compounds was performed using human T cell leukemia Jurkat cell line treated with colchicine (5 μg/ml or 0.5 μg/ml) and various doses of peptide/peptidomimetics for 24 hr (FIG. 12). The DNA of the cells was stained and analyzed by flow cytometry as described above.
The “Appearance of side effect when used alone” indicates the peptide/peptidomimetic dose that produced Jurkat cell cycle disturbance, i.e., the appearance of significant amounts of SubG1 cells (dead cells) or cells in which the DNA content of each varies more than usual. […]
A comparison between G2 checkpoint abrogating activity and non specific toxicity (M checkpoint abrogation) by CB501 was performed. […] The DNA amount in each of the treated cells was analyzed by flow cytometry, as previously described.

Data set [10] is described as follows: Human serum treatment analysis, residual G2 checkpoint abrogating activity. The format is in vitro ADME. As to conditions: d-type amino acid peptides compared with l-type peptide such as CBP413. The protocol: Serum analysis was performed to determine the stability of peptides in mouse and human serum. Briefly, peptides (10 mM or 2.5 mM) were incubated with freshly prepared human serum at 37 degrees for 1 hr. CBP50 (10 mM) was incubated with freshly prepared mouse serum for 1 hr at 37 degree. Jurkat cells were treated with the serum with or without peptides and bleomycin (40 μg/ml) and incubated for 24 hr. The population of G2 phase cells was determined by flow cytometry as previously described. The residual G2 checkpoint abrogating activity of serum treated peptides were determined by comparing the % G2 cells of the treated serum and the standard curve produced with medium treated peptides, bleomycin and Jurkat cells (Table 5A).

“Also recorded” adds a separate entry of the source. Square brackets hold non-standard residues; d marks the D form. Peptide text beside a SMILES is read from it. dPhe(F5) = N[C@H](Cc1c(F)c(F)c(F)c(F)c1F)C(=O)O; dBpa = N[C@H](Cc1ccc(C(=O)c2ccccc2)cc1)C(=O)O; dCha = N[C@H](CC1CCCCC1)C(=O)O

As for `N=C(N)NCCC[C@@H](NC(=O)[C@@H](CCCNC(=N)N)NC(=O)[C@@H](CCC(N)=O)NC(=O)[C@@H](CCCNC(=N)N)NC(=O)[C@@H](CCCNC(=N)N)NC(=O)[C@@H](CCCNC(=N)N)NC(=O)[C@@H](CC1CCCCC1)NC(=O)[C@@H](Cc1c(F)c(F)c(F)c(F)c1F)NC(=O)[C@@H](CO)NC(=O)[C@@H](Cc1c[nH]c2ccccc12)NC(=O)[C@@H](CO)NC(=O)[C@H](N)Cc1ccc(C(=O)c2ccccc2)cc1)C(=O)O` [CBP501, (d-Bpa)(d-Ser)(d-Trp)(d-Ser)(d-Phe-2,3,4,5,6-F)(d-Cha)(d-Arg)(d-Arg)(d-Arg)(d-Gln)(d-Arg)(d-Arg)] (H-[dBpa][dS][dW][dS][dPhe(F5)][dCha][dR][dR][dR][dQ][dR][dR]-OH; N-terminus and C-terminus assumed), in the data set on HUVEC [1], the “Effect on growth of HUVEC cells, peptide alone (in words)” value was “does not affect the growth of HUVEC cells”. In addition, in data set [2], the “Effect on cyto-toxic activity of cisplatin and oxaliplatin, colony formation (in words)” value was “enhanced the cyto-toxic activity of both cisplatin and oxaliplatin”. Further, the “Cell growth inhibition alone (in words)” value in the data set with MIAPaCa2 [3] (compared with cisplatin) is “inhibits cell growth better than cisplatin in molar dose”. For the same compound, the “Cell growth suppression combined with 10 μM of cisplatin (in words)” value in the data set with MIAPaCa2 [3] (with 10 μM cisplatin) is given as “suppressed cell growth at a much lower dose”. The “Solubility in water (in words)” value in the data set “Solubility in water” is “soluble in water”. Besides, the “Tumor growth, CBP501 treatment alone (in words)” value in data set [4] (CBP501 10 or 40 mg/kg intra-peritoneal) is on record as “suppresses the growth of human pancreatic cancer cell in vivo”. In addition, in data set [4] (CDDP 3 mg/kg with CBP501 10 or 40 mg/kg intra-peritoneal), the “Anti-tumor activity of cisplatin in combination (in words)” value is recorded as “increased the anti-tumor activity of cisplatin”. Further, the remaining at 1 h, 10 mM in [5] was greater than 90%. Also, in the data set with MIAPaCa2 [6], the “Sensitization of MIAPaCa2 cells to bleomycin and adriamycin (% sub-G1, in words)” value is “sensitized MIAPaCa2 cells to both bleomycin and adriamycin in a dose dependent manner”. Also, the “Sensitization of HUVEC cells to cisplatin (in words)” value in the data set with HUVEC [7] is on record as “not sensitized”. Further, in the data set with Jurkat cells [8], the G2 abrogating dose entry is listed as “≧0.39 μM”. Further, the “Non specific toxicity (M checkpoint abrogation) (in words)” value in the data set with Jurkat cells [9] was “absent; also recorded: does not affect M phase cell cycle arrest and/or non specific toxicity induced by colchicine”. In data set [10], the “Stability in serum (in words)” value is “more stable in serum”.
